Data set [1] concerns the target Vascular endothelial growth factor receptor 2 (Homo sapiens) (UniProt P35968). Briefly: Inhibition of VEGFR2 (unknown origin) at <1 uM using biotinylated poly[Glu:Tyr] (4:1) as substrate pretreated for 5 mins followed by substrate addition measured after 10 mins by Alphascreen assay. (In general: In Alpha technology, singlet oxygen from a donor bead excites a nearby acceptor bead.)

For data set [2], the target named is CDC7/DBF4 (Cell division cycle 7-related protein kinase/Activator of S phase kinase) (Homo sapiens) (UniProt Q9UBU7+O00311). Briefly: Inhibition of CDC7/Dbf4 (unknown origin) at 1 uM using His-tagged MCM2 as substrate preincubated for 5 mins followed by substrate addition measured after 60 mins in presence of [gamma33P]ATP by scintillation counter method relative to control. The format is protein-complex assay.

The target of data set [3] is RAC-alpha serine/threonine-protein kinase (Homo sapiens) (UniProt P31749). Put plainly: Inhibition of Akt1 (unknown origin) at <1 uM using AKT1 substrate pretreated for 5 mins followed by substrate addition after 20 mins in presence of [gamma33P]ATP by scintillation counter method.
The target in data set [4] is T1, CDK8/Cyclin C (Homo sapiens, UniProt P49336). Put plainly: Inhibition of kinase tracer-236 binding to GST-tagged CDK8/CyclinC (unknown origin) after 60 mins by TR-FRET assay. The format is protein-complex assay.
T1 sequence (P49336 whole entry): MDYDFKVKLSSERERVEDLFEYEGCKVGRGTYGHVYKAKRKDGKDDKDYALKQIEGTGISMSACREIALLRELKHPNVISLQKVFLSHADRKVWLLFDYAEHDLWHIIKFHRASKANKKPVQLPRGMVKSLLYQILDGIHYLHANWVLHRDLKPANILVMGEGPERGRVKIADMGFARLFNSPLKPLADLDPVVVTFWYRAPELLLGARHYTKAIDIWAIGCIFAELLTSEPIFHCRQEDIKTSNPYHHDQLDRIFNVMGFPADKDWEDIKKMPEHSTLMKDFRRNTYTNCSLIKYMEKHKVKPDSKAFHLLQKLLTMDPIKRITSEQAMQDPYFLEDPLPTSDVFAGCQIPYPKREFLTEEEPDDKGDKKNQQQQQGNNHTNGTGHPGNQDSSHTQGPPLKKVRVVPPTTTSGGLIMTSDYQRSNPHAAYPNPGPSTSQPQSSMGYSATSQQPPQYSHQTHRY
T1 sequence (P24863 whole entry, further chain): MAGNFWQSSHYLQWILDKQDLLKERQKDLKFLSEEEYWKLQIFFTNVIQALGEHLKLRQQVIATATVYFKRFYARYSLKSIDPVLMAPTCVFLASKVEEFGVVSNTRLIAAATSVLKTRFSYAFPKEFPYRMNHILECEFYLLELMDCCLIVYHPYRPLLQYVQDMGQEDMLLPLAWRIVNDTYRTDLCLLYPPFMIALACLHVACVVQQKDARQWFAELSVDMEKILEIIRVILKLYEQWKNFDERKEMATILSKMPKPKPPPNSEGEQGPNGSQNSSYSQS
Data set [5] concerns the target Serine/threonine-protein kinase PLK1 (Homo sapiens) (UniProt P53350). Briefly: Inhibition of PLK1 (unknown origin) at 1 uM using alpha-casein as substrate preincubated for 5 mins followed by substrate addition measured after 60 mins in presence of [gamma33P]ATP by scintillation counter method relative to control.
For data set [6], the target named is CDK2/Cyclin A2 (Homo sapiens) (UniProt P24941+P20248). Briefly: Inhibition of CDK2/cyclin A (unknown origin) at 1 uM using histone H1 as substrate preincubated for 5 mins followed by substrate addition measured after 20 mins in presence of [gamma33P]ATP by scintillation counter method relative to control. It counts as protein-complex assay.
Data set [7] deals with T2, Cyclin-dependent kinase 8 (Homo sapiens, UniProt P49336). Put plainly: Inhibition of CDK8 in human SW480 cells assessed as decrease in STAT1 phosphorylation at Ser727 after 2 hrs by Western blot method.
T2 sequence (P49336 whole entry): as the sequence (P49336 whole entry) above
Data set [8] deals with MAP kinase-activated protein kinase 2 (Homo sapiens) (UniProt P49137). Put plainly: Inhibition of MAPKAPK2 (unknown origin) at <1 uM using KKLNRTLSVA-NH2 as substrate preincubated for 5 mins followed by substrate addition measured after 10 mins in presence of [gamma33P]ATP by scintillation counter method.
Sequence of MAP kinase-activated protein kinase 2 (Homo sapiens) (P49137 whole entry, looked up): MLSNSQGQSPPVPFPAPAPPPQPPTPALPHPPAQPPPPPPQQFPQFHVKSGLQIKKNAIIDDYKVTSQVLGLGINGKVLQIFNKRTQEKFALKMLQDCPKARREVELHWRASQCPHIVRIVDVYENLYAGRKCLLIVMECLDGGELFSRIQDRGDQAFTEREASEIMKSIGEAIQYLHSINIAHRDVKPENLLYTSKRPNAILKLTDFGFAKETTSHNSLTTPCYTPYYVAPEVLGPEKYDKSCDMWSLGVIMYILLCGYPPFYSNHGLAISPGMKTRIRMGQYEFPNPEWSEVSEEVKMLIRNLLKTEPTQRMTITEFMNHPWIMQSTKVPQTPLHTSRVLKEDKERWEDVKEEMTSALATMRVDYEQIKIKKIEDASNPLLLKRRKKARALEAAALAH
The target of data set [9] is T3, Cyclin-dependent kinase 9 (Homo sapiens, UniProt P50750). Put plainly: Inhibition of CDK9 (unknown origin) at 1 uM relative to control.
T3 sequence (P50750 whole entry): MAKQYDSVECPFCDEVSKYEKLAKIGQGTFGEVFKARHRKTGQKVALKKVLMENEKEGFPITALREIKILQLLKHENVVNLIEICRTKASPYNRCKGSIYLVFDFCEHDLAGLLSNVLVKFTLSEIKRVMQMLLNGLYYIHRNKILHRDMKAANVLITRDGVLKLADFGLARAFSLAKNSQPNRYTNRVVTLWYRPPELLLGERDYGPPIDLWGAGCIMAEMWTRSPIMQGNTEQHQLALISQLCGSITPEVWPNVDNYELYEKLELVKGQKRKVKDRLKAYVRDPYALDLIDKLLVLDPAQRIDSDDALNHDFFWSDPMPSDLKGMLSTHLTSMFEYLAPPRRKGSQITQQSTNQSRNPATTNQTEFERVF
The target in data set [10] is Proto-oncogene tyrosine-protein kinase Src (Homo sapiens) (UniProt P12931). Briefly: Inhibition of SRC (unknown origin) at <1 uM using biotinylated poly[Glu:Tyr] (4:1) as substrate pretreated for 5 mins followed by substrate addition measured after 10 mins by Alphascreen assay.
In data set [11] the target is Glycogen synthase kinase-3 beta (Homo sapiens) (UniProt P49841). Briefly: Inhibition of GSK3beta (unknown origin) at 1 uM using GSK3 substrate peptide preincubated for 5 mins followed by substrate addition measured after 30 mins in presence of [gamma33P]ATP by scintillation counter method relative to control.
Sequence of Glycogen synthase kinase-3 beta (Homo sapiens) (P49841 whole entry, looked up): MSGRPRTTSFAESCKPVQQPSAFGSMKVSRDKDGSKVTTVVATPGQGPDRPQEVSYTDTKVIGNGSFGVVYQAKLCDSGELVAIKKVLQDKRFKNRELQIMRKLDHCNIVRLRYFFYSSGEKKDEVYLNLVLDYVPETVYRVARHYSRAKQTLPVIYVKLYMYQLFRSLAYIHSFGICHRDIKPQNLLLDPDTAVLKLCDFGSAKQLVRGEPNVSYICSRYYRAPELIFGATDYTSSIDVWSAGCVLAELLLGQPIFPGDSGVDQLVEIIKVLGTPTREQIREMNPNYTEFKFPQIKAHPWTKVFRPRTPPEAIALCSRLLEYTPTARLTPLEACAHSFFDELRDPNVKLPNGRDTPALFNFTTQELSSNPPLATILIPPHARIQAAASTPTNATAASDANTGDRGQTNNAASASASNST
For data set [12], the target named is Tyrosine-protein kinase JAK1 (Homo sapiens) (UniProt P23458). Put plainly: Inhibition of JAK1 (unknown origin) at <1 uM using biotinylated poly[Glu:Tyr] (4:1) as substrate pretreated for 5 mins followed by substrate addition measured after 10 mins by Alphascreen assay.
Data set [13] has as its target High affinity nerve growth factor receptor (Homo sapiens) (UniProt P04629). Put plainly: Inhibition of TrkA (unknown origin) at <1 uM.
In data set [14] the target is Casein kinase I isoform delta (Homo sapiens) (UniProt P48730). Put plainly: Inhibition of CK1delta (unknown origin) at 1 uM using CK1tide as substrate preincubated for 5 mins followed by substrate addition measured after 20 mins in presence of [gamma33P]ATP by scintillation counter method relative to control.
Data set [15] concerns the target Rho-associated protein kinase 1 (Homo sapiens) (UniProt Q13464). Briefly: Inhibition of ROCK1 (unknown origin) at 1 uM using long S6 peptide as substrate pretreated for 5 mins followed by substrate addition measured after 10 mins in presence of [gamma33P]ATP by scintillation counting method relative to control.
In data set [16] the target is Mitogen-activated protein kinase 3 (Homo sapiens) (UniProt P27361). Put plainly: Inhibition of ERK1 (unknown origin) at <1 uM using MBP as substrate preincubated for 5 mins followed by substrate addition measured after 60 mins in presence of [gamma33P]ATP by scintillation counter method.
Sequence of Mitogen-activated protein kinase 3 (Homo sapiens) (P27361 whole entry): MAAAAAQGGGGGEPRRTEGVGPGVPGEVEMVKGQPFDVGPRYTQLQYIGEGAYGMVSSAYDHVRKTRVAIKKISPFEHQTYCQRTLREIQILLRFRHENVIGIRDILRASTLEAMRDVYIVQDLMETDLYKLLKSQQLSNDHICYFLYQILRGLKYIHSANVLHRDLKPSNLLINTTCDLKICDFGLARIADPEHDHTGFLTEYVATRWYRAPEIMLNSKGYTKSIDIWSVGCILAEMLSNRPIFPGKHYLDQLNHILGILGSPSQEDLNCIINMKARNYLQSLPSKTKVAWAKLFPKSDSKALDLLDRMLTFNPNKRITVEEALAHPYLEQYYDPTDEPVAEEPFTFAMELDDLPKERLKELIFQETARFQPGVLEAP
Data set [17] deals with Aurora kinase B (Homo sapiens) (UniProt Q96GD4). Briefly: Inhibition of Aurora B (unknown origin) at <1 uM using aurora peptide as substrate preincubated for 5 mins followed by substrate addition measured after 60 mins in presence of [gamma33P]ATP by scintillation counter method.
Sequence of Aurora kinase B (Homo sapiens) (Q96GD4 whole entry): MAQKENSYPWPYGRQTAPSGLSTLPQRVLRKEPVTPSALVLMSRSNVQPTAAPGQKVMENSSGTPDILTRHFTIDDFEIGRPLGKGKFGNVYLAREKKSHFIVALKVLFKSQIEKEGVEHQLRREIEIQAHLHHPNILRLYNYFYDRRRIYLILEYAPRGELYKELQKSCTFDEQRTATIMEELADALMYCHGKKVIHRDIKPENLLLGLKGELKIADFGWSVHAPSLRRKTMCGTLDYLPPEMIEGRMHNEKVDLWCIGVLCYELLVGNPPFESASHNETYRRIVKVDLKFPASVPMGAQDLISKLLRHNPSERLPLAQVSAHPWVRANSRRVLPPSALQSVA
Another data set is filed under the species Homo sapiens. Put plainly: Inhibition of PKA (unknown origin) at 1 uM using PKA peptide as substrate preincubated for 5 mins followed by substrate addition measured after 10 mins in presence of [gamma33P]ATP by scintillation counter method relative to control.
Data set [18] addresses Cyclin-C/Cyclin-dependent kinase 19 (Homo sapiens) (UniProt Q9BWU1+P24863). Particulars: 1 uM.
Description: Inhibition of kinase tracer-236 binding to GST-tagged CDK19/CyclinC (unknown origin) at 1 uM after 60 mins by TR-FRET assay relative to control
For data set [19], the target named is Mitogen-activated protein kinase 14 (Homo sapiens) (UniProt Q16539). Put plainly: Inhibition of p38alpha (unknown origin) at <1 uM using MBP as substrate preincubated for 5 mins followed by substrate addition measured after 60 mins in presence of [gamma32P]ATP by scintillation counter method.
Sequence of Mitogen-activated protein kinase 14 (Homo sapiens) (Q16539 whole entry, canonical isoform): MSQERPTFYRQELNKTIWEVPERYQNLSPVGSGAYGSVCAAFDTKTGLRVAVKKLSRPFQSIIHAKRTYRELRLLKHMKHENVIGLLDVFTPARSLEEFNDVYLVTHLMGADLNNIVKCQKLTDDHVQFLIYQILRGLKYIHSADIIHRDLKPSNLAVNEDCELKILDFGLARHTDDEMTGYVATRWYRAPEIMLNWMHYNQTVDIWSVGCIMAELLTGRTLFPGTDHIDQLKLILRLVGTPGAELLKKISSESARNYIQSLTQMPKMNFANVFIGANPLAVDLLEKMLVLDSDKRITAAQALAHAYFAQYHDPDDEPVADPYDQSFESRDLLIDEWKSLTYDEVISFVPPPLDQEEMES
Data set [20] concerns the target Phosphatidylinositol 4,5-bisphosphate 3-kinase catalytic subunit alpha isoform (Homo sapiens) (UniProt P42336). Briefly: Inhibition of PI3Kalpha (unknown origin) at <1 uM.
Data set [21] deals with Protein kinase C theta type (Homo sapiens) (UniProt Q04759). Briefly: Inhibition of PKCtheta (unknown origin) at 1 uM using MBP as substrate preincubated for 5 mins followed by substrate addition measured after 60 mins in presence of [gamma33P]ATP by scintillation counter method relative to control.
The target of data set [22] is T3, Cyclin-dependent kinase 9. Put plainly: Inhibition of CDK9 (unknown origin).
Data set [23] deals with Hepatocyte growth factor receptor (Homo sapiens) (UniProt P08581). Put plainly: Inhibition of cMET (unknown origin) at <1 uM.
Data set [24] addresses CDK8/Cyclin C (Homo sapiens) (UniProt P49336+P24863). Conditions: 1 uM.
Description: Inhibition of kinase tracer-236 binding to GST-tagged CDK8/CyclinC (unknown origin) at 1 uM after 60 mins by TR-FRET assay relative to control
Data set [25] deals with Ephrin type-A receptor 5 (Homo sapiens) (UniProt P54756). Briefly: Inhibition of EphA5 (unknown origin) at <1 uM using biotinylated poly[Glu:Tyr] (4:1) as substrate pretreated for 5 mins followed by substrate addition measured after 10 mins by Alphascreen assay.
The target in data set [26] is Insulin receptor (Homo sapiens) (UniProt P06213). Briefly: Inhibition of IRK (unknown origin) at <1 uM using biotinylated poly[Glu:Tyr] (4:1) as substrate pretreated for 5 mins followed by substrate addition measured after 60 mins by Alphascreen assay.
Data set [27] concerns the target Cyclin-C/Cyclin-dependent kinase 19 (Homo sapiens, UniProt Q9BWU1). Put plainly: Inhibition of kinase tracer-236 binding to GST-tagged CDK19/CyclinC (unknown origin) after 60 mins by TR-FRET assay. It counts as protein-complex assay. A general note: In TR-FRET formats the signal depends on donor and acceptor labels being close together.
Data set [28] deals with Focal adhesion kinase 1 (Homo sapiens) (UniProt Q05397). Briefly: Inhibition of FAK (unknown origin) at <1 uM using biotinylated poly[Glu:Tyr] (4:1) as substrate pretreated for 5 mins followed by substrate addition measured after 20 mins by Alphascreen assay.
Data set [29] is described as follows: Intrinsic clearance in human liver microsomes at 1 umol/l after 15 to 30 mins in presence of NADPH by LC-MS/MS analysis. Conditions: read-out: CLH. The format is ADME, microsome.
For data set [30], the target named is Dual specificity mitogen-activated protein kinase kinase 1 (Homo sapiens) (UniProt Q02750). Briefly: Inhibition of MEK1 (unknown origin) at <1 uM using GST-ERK1 as substrate preincubated for 5 mins followed by substrate addition measured after 20 mins in presence of [gamma33P]ATP by scintillation counter method.
The target of data set [31] is Serine/threonine-protein kinase Chk1 (Homo sapiens) (UniProt O14757). Briefly: Inhibition of CHK1 (unknown origin) at <1 uM using CHKtide as substrate preincubated for 5 mins followed by substrate addition measured after 10 mins in presence of [gamma33P]ATP by scintillation counter method.
Sequence of Serine/threonine-protein kinase Chk1 (Homo sapiens) (O14757 whole entry): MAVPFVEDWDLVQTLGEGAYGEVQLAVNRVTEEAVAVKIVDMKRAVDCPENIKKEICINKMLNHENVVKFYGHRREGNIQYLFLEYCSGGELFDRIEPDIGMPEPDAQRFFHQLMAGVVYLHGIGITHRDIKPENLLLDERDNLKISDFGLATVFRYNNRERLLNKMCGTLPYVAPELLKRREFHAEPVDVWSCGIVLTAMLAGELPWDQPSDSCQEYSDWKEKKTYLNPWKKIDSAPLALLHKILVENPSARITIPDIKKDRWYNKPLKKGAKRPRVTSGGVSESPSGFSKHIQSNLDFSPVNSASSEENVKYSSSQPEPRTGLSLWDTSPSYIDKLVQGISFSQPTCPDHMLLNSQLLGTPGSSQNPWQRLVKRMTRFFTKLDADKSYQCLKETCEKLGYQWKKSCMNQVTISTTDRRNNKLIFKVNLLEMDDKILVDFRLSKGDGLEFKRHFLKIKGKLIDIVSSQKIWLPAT
The target in data set [32] is Mitogen-activated protein kinase kinase kinase 5 (Homo sapiens) (UniProt Q99683). Briefly: Inhibition of ASK1 (unknown origin) at 1 uM using MBP as substrate preincubated for 5 mins followed by substrate addition measured after 60 mins in presence of [gamma33P]ATP by scintillation counter method relative to control.
The target in data set [33] is T2, Cyclin-dependent kinase 8. Briefly: Inhibition of CDK8 in human A549 cells by mass spectrometric method. It counts as cell-based.
A further data set deals with SET-2. Briefly: Antitumor activity against human SET2 cells implanted in […] assessed as reduction in tumor volume administered intraperitoneally relative to control. It counts as functional. Set-up: scale not given: the % may be the effect or the level left.
Data set [34] deals with T2, Cyclin-dependent kinase 8. Put plainly: Inhibition of CDK8 (unknown origin) at 1 uM by ADP-Glo assay.
In data set [35] the target is T1, CDK8/Cyclin C. Briefly: Inhibition of full length recombinant human His-tagged CDK8/Cyclin C expressed in baculovirus expression system by LanthaScreen assay.
The target in data set [36] is T2, Cyclin-dependent kinase 8. Put plainly: Inhibition of CDK8 induced beta-catenin transcriptional activity in human HCT116 cells by luciferase reporter gene assay. The format is cell-based. For orientation: Reporter assays use an easily measured gene product as a stand-in for the process of interest.

Broadly, the inhibition is the relative decrease from the control value, in per cent. By IC50 is commonly meant the concentration needed to halve the response being measured. In general, EC50 refers to the concentration needed to bring the measured effect to its halfway point.

Activity calls are given as the source filed them. No cut-off for these calls is given here.

Sequence of High affinity nerve growth factor receptor (Homo sapiens) (P04629 33-796 limits assumed): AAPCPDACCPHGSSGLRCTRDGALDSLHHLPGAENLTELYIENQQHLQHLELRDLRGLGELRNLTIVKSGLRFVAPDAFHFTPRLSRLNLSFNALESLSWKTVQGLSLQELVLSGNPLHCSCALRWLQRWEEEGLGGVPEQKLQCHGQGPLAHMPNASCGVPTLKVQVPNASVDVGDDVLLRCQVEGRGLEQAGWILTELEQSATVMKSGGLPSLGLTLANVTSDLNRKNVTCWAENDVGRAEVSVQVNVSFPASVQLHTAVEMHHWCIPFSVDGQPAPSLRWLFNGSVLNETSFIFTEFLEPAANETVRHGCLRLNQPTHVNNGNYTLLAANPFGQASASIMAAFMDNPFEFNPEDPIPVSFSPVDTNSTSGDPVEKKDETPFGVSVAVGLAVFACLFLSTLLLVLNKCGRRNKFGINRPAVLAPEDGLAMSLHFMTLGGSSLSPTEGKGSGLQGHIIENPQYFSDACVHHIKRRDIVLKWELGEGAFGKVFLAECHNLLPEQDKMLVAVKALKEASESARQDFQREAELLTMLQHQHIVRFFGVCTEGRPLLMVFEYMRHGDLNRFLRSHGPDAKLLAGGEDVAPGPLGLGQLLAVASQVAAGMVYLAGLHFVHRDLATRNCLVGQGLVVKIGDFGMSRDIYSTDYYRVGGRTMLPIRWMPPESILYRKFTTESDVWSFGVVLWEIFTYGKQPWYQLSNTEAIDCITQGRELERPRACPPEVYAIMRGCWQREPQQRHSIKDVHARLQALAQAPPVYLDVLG
Sequence of Cyclin-C/Cyclin-dependent kinase 19 (Q9BWU1 whole entry): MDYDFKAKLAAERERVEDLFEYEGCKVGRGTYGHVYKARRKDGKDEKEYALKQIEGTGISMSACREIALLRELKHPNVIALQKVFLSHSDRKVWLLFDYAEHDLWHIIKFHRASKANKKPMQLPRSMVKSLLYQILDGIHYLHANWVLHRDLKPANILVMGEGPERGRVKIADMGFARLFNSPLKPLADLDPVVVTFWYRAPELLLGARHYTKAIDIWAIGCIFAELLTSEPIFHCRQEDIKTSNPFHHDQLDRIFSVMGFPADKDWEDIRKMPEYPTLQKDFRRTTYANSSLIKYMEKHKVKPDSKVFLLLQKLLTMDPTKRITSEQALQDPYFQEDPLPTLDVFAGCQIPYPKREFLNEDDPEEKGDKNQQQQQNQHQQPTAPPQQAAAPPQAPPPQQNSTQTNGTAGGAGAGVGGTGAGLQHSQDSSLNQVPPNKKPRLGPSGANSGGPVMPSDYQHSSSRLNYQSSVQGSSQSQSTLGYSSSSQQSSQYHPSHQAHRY
Sequence of Cyclin-C/Cyclin-dependent kinase 19 (P24863 whole entry, further chain): as the sequence (P24863 whole entry, further chain) above

With `CSc1sc(C(N)=O)c2c1-c1sncc1CC2`, the inhibition result in data set [1], in data set [3], in [8], in data set [10], in data set [12] and in [13] was “inactive” throughout. In addition, the inhibition entry in data set [16], in data set [17], in [19], in [20], in data set [23] and in data set [25] was “inactive” throughout. In addition, the inhibition entry in data set [26], in [28], in data set [30] and in data set [31] was “inactive” in each case. Moreover, the inhibition in [2] worked out at 91%; in [5] it was 62%; in data set [6] it was 95%; in [9], 105%; in data set [11] it was 64%; in data set [14] it was 94%. Further, the inhibition came out at 81% in data set [15]; 62% in the data set listed under Homo sapiens; 97% in data set [18]; 77% in data set [21]; 99% in data set [24]; 60% in data set [32]. Moreover, the IC50 at CDK8/Cyclin C [4] was 0.65 nM; in data set [22], 4 nM; in data set [27], 1.3 to 1.7 nM. Moreover, the EC50 in data set [7] came to 8.9 nM. Moreover, the microsomal CLint at 1 µM in [29] came out at 137 µL/min/mg.

In [33], `NC(=O)C[C@H]1CCc2sc3ncnc(O[C@H]4CC[C@H](N5CCOCC5)CC4)c3c21` had a half-maximal inhibitory concentration (IC50) of 22 nM.

With `CN(C)[C@H]1C[C@@]23CC[C@@]4(O2)C(=CC[C@]2(C)[C@@H](c5ccc6ccncc6c5)CC[C@H]24)C=C3[C@@H](O)[C@@H]1O`, the Activity with SET-2 is listed as 71%.

Consider `Brc1c(Br)c2c3c(nc(N4CCNCC4)n3CCC2)c1Br`, for which, in data set [34], the inhibition came to 96%.

In the case of `c1cc2cc(c1)-c1cnc3ccc(nn13)NCCCCCO2`, the concentration for half-maximal inhibition (IC50) at CDK8/Cyclin C [35] amounted to 31 nM. Moreover, in data set [36], a half-maximal effect (EC50) was put at 337 nM.

The values above are taken from ChEMBL document CHEMBL4028808, “Design and synthesis of selective CDK8/19 dual inhibitors: Discovery of 4,5-dihydrothieno[3',4':3,4]benzo[1,2-d]isothiazole derivatives” (Bioorg Med Chem, 2017).
